Reference: ChEMBL document CHEMBL1153254, “Vasorelaxant activity of 2-substituted 6-nitro-2H-1-benzopyran-4-carbothioamide K+ channel openers” (Bioorg Med Chem Lett, 1993)

Key:
Rattus norvegicus [1] = species on record: Rattus norvegicus; assay: Negative logarithm of the molar concentration required to relax rat aorta precontracted with 30 mM KCl by 50% of intrinsic activity; type: functional; settings: for EC50: Rattus norvegicus, Aorta
Rattus norvegicus [2] = species on record: Rattus norvegicus; assay: Intrinsic activity in rat isolated aorta; type: functional

With `C/N=C(/S)C1=CC2(CCCC2)Oc2ccc([N+](=O)[O-])cc21` the EC50 (Rattus norvegicus [1]) was 0.0251 nM and the IA (Rattus norvegicus [2]) was 77.7%.

With `C/N=C(/S)C1=CC(C)(C)Oc2ccc([N+](=O)[O-])cc21` the IA (Rattus norvegicus [2]) was 63.5%.

For `CCC1C=C(/C(S)=N\C)c2cc([N+](=O)[O-])ccc2O1` (stereo unspecified), the EC50 (Rattus norvegicus [1]) was over 31600 nM.

`C/N=C(/S)C1=CC2(CCC2)Oc2ccc([N+](=O)[O-])cc21` was tested, and the EC50 (Rattus norvegicus [1]) was 0.0209 nM and the IA (Rattus norvegicus [2]) was 68.2%.

With `C/N=C(/S)C1=CC2(CCCCC2)Oc2ccc([N+](=O)[O-])cc21` the EC50 (Rattus norvegicus [1]) was 0.112 nM and the IA (Rattus norvegicus [2]) was 77.6%.

`C/N=C(/S)C1=CC(C)(C)Oc2ccc(C#N)cc21` gave an IA (Rattus norvegicus [2]) of 89%.

`CCCC1(C)C=C(/C(S)=N\C)c2cc([N+](=O)[O-])ccc2O1` (stereo unspecified) was tested, and the EC50 (Rattus norvegicus [1]) was 0.017 nM and the IA (Rattus norvegicus [2]) was 62.6%.

With `CCCCC1(C)C=C(/C(S)=N\C)c2cc([N+](=O)[O-])ccc2O1` (stereo unspecified) the EC50 (Rattus norvegicus [1]) was 40.7 nM and the IA (Rattus norvegicus [2]) was 66.5%.

`CCC1(C)C=C(/C(S)=N\C)c2cc([N+](=O)[O-])ccc2O1` (stereo unspecified) was tested, and the EC50 (Rattus norvegicus [1]) was 0.182 nM and the IA (Rattus norvegicus [2]) was 75.1%.

`C/N=C(/S)C1=CC2(Oc3ccc([N+](=O)[O-])cc31)C1CC3CC(C1)CC2C3` (stereo unspecified) was tested, and the EC50 (Rattus norvegicus [1]) was 407 nM and the IA (Rattus norvegicus [2]) was 87.9%.

Work on `C/N=C(/S)C1=CC2(CCCCCC2)Oc2ccc([N+](=O)[O-])cc21` yielded an EC50 (Rattus norvegicus [1]) of 47.9 nM and an IA (Rattus norvegicus [2]) of 61.5%.

With `CCC1(CC)C=C(/C(S)=N\C)c2cc([N+](=O)[O-])ccc2O1` the EC50 (Rattus norvegicus [1]) was 0.372 nM and the IA (Rattus norvegicus [2]) was 70.3%.

In the case of `C/N=C(/S)C1=CC(C(C)(C)C)Oc2ccc([N+](=O)[O-])cc21` (stereo unspecified), the EC50 (Rattus norvegicus [1]) is reported as 0.398 nM and the IA (Rattus norvegicus [2]) is reported as 71.7%.

In the case of `C/N=C(/S)C1=C(O)C(C)(C)Oc2ccc([N+](=O)[O-])cc21`, the EC50 (Rattus norvegicus [1]) is reported as 1120 nM and the IA (Rattus norvegicus [2]) is reported as 93.9%.

`C/N=C(/S)C1c2cc([N+](=O)[O-])ccc2OC(C)(C)C1O` (stereo in doubt; cis) was tested, and the “Log EC50” value (Rattus norvegicus [1]) was -6.96 and the IA (Rattus norvegicus [2]) was 57.9%.

In the case of `C/N=C(/S)C1c2cc([N+](=O)[O-])ccc2OC(C)(C)C1O` (stereo in doubt; trans), the “Log EC50” value (Rattus norvegicus [1]) is reported as -6.58 and the IA (Rattus norvegicus [2]) is reported as 73.2%.

Compound `CC1(C)Oc2ccc(C#N)cc2[C@@H](N2CCCC2=O)[C@@H]1O` [CROMAKALIM] has an IA (Rattus norvegicus [2]) of 74.7%.

In the case of `CC(N/C(=N\C#N)Nc1ccncc1)C(C)(C)C` (stereo unspecified) [PINACIDIL ANHYDROUS], the IA (Rattus norvegicus [2]) is reported as 91.9%.
